Structures can show the parent of a compound that is named as a salt.
Assays:
[1] = test system: six MCC cell lines and four control cell lines; assay: qHTS cell viability, all 10 cell lines screened; format: cell-based
[2] = test system: MCC cell lines (WAGA, MKL-1, MKL-2, MCC13, MCC26, UISO); assay: qHTS cell viability, all six MCC cell lines as a group (mean AUC, MCC.avg); format: cell-based, human; conditions: mean AUC of six MCC cell lines
[3] = test system: NIH-3T3 cells; assay: qHTS cell viability (CellTiter-Glo, 72 h; primary screen), control cell line; format: cell-based, mouse
[4] = test system: MKL-1 cells (VP-MCC); assay: qHTS cell viability (CellTiter-Glo, 72 h; primary and follow-up small molecule screen); format: cell-based, human
[5] = test system: WAGA cells (VP-MCC); assay: as above; format: cell-based, human
[6] = test system: MCC13 cells (VN-MCC); assay: as above; format: cell-based, human
[7] = test system: VN-MCC cell lines (MCC13, MCC26, UISO); assay: qHTS cell viability, VN-MCC cell lines as a group (mean AUC, VN.MCC.avg); format: cell-based, human; conditions: for VN-MCC_Avg_AUC: mean AUC of VN-MCC cell lines
[8] = test system: control cell lines (HACAT, HEK293T, CRL-7250, NIH-3T3); assay: qHTS cell viability, control cell lines as a group (mean AUC, Control.avg); format: cell-based; conditions: mean AUC of control cell lines
[9] = test system: MKL-2 cells (VP-MCC); assay: qHTS cell viability (CellTiter-Glo, 72 h; primary and follow-up small molecule screen); format: cell-based, human
[10] = test system: VP-MCC cell lines (WAGA, MKL-1, MKL-2); assay: qHTS cell viability, VP-MCC cell lines as a group (mean AUC, VP.MCC.avg); format: cell-based, human; conditions: for VP-MCC_Avg_AUC: mean AUC of VP-MCC cell lines
[11] = test system: UISO cells (VN-MCC); assay: qHTS cell viability (CellTiter-Glo, 72 h; primary and follow-up small molecule screen); format: cell-based, human
[12] = test system: MCC26 cells (VN-MCC); assay: as above; format: cell-based, human
[13] = test system: CRL-7250 cells; assay: qHTS cell viability (CellTiter-Glo, 72 h; primary screen), control cell line; format: cell-based
[14] = test system: HACAT cells; assay: as above; format: cell-based, human
[15] = test system: HEK293T cells; assay: as above; format: cell-based, human
[16] = MIPE library, Control AUC minus MCC AUC (therapeutic window), sheet S2E
[17] = MIPE library, 11-point DRC, control cell line, sheet S2E
[18] = MIPE library, 11-point DRC, sheet S2E
[19] = MIPE library, Control AUC minus VN-MCC AUC (therapeutic window), sheet S2E
[20] = MIPE library, Control AUC minus VP-MCC AUC (therapeutic window), sheet S2E
[21] = NPC library, therapeutic window: Control avg AUC minus MCC avg AUC
[22] = NPC library, qHTS dose-response AUC, NIH3T3 control
[23] = NPC library, qHTS dose-response AUC, MKL1
[24] = NPC library, qHTS dose-response AUC, WAGA
[25] = NPC library, qHTS dose-response AUC, MCC13
[26] = NPC library, therapeutic window: Control avg AUC minus VN-MCC avg AUC
[27] = NPC library, qHTS dose-response AUC, MKL2
[28] = NPC library, therapeutic window: Control avg AUC minus VP-MCC avg AUC
[29] = NPC library, qHTS dose-response AUC, UISO
[30] = NPC library, qHTS dose-response AUC, MCC26
[31] = NPC library, qHTS dose-response AUC, CRL7250 control
[32] = NPC library, qHTS dose-response AUC, HACAT control
[33] = NPC library, qHTS dose-response AUC, HEK293T control

Row | SMILES | Control-MCC [1, 16] | MCC_Avg_AUC ([2]; MIPE library, sheet S2E) | NIH3T3_AUC [3, 17] | MKL1_AUC [4, 18] | WAGA_AUC [5, 18] | MCC13_AUC [6, 18] | Control-VN-MCC [7, 19] | VN-MCC_Avg_AUC ([7]; MIPE library, sheet S2E) | Control_Avg_AUC ([8]; MIPE library, sheet S2E) | MKL2_AUC [9, 18] | Control-VP-MCC [10, 20] | VP-MCC_Avg_AUC ([10]; MIPE library, sheet S2E) | UISO_AUC [11, 18] | MCC26_AUC [12, 18] | CRL7250_AUC [13, 17] | HACAT_AUC [14, 17] | HEK293T_AUC [15, 17] | Control-MCC [1, 21] | MCC_Avg_AUC ([2]; NPC library) | NIH3T3_AUC [3, 22] | also measured
1 | CCNC(=O)Nc1ccc2ncc(Nc3ccc(C)cc3)nc2n1 [D-106669] | 51.0396 | 419.775 | 467.724 | 400.108 | 400.326 | 484.886 | 41.7531 | 429.061 | 470.814 | 431.031 | 60.3261 | 410.488 | 355.75 | 446.547 | 461.458 | 474.569 | 479.506 |  |  |  | 
2 | C=CC(=O)Nc1cccc(Nc2nc(NC3CCC(N(C)C)CC3)nc3c2ncn3C(C)C)c1 (stereo not shown) [HMSL10084] | 83.0363 | 269.649 | 437.409 | 144.905 | 181.546 | 424.628 | -8.265 | 360.951 | 352.686 | 208.594 | 174.338 | 178.348 | 276.887 | 381.337 | 274.567 | 381.06 | 317.706 |  |  |  | 
3 | Cc1cc(OCCOCC[N+](C)(C)Cc2ccccc2)ccc1C(C)(C)CC(C)(C)C.[Cl-] [Methylbenzethonium chloride] |  |  |  |  |  |  |  |  |  |  |  |  |  |  |  |  |  | 76.0988 | 338.857 | 469.697 | MKL1_AUC [4, 23]: 312.601; WAGA_AUC [5, 24]: 200.731; MCC13_AUC [6, 25]: 479.749; VN-MCC_Avg_AUC ([7]; NPC library): 436.818; Control-VN-MCC [7, 26]: -21.8625; Control_Avg_AUC ([8]; NPC library): 414.956; MKL2_AUC [9, 27]: 209.354; VP-MCC_Avg_AUC ([10]; NPC library): 240.895; Control-VP-MCC [10, 28]: 174.06; UISO_AUC [11, 29]: 375.218; MCC26_AUC [12, 30]: 455.487; CRL7250_AUC [13, 31]: 444.568; HACAT_AUC [14, 32]: 428.465; HEK293T_AUC [15, 33]: 317.092
4 | c1ccc(CC2=NCCN2)cc1 [Tolazoline hydrochloride] |  |  |  |  |  |  |  |  |  |  |  |  |  |  |  |  |  | 39.4026 | 420.949 | 440.048 | MKL1_AUC [4, 23]: 395.582; WAGA_AUC [5, 24]: 433.154; MCC13_AUC [6, 25]: 452.083; VN-MCC_Avg_AUC ([7]; NPC library): 433.01; Control-VN-MCC [7, 26]: 27.3412; Control_Avg_AUC ([8]; NPC library): 460.352; MKL2_AUC [9, 27]: 397.927; VP-MCC_Avg_AUC ([10]; NPC library): 408.888; Control-VP-MCC [10, 28]: 51.4641; UISO_AUC [11, 29]: 451.588; MCC26_AUC [12, 30]: 395.361; CRL7250_AUC [13, 31]: 475.841; HACAT_AUC [14, 32]: 471.166; HEK293T_AUC [15, 33]: 454.352
5 | Cc1[nH]c(/C=C2\C(=O)Nc3ccccc32)c(C)c1CCC(=O)O [Orantinib] | 60.2668 | 343.492 | 371.272 | 273.854 | 255.586 | 429.293 | 1.813 | 401.946 | 403.759 | 325.675 | 118.721 | 285.038 | 326.059 | 450.485 | 403.945 | 472.413 | 367.406 |  |  |  | 
